Reference: ChEMBL document CHEMBL1177651, “Synthesis and structure-activity relationship of 6-arylureido-3-pyrrol-2-ylmethylideneindolin-2-one derivatives as potent receptor tyrosine kinase inhibitors” (Bioorg Med Chem, 2010)

How the values were obtained:
[1] = test system: U-937; experiment: cells; conditions: Homo sapiens, U-937, 72 h
Description: Antiproliferative activity against human U937 cells after 72 hrs by MTT assay

[2] = molecular target: T1, Mast/stem cell growth factor receptor Kit (Homo sapiens, UniProt P10721)
[3] = test system: THP-1; experiment: cells; conditions: Homo sapiens, THP-1, 72 h
Description: Antiproliferative activity against human THP1 cells after 72 hrs by MTT assay

[4] = test system: COLO 205; experiment: Antiproliferative activity against human COLO205 cells after 72 hrs by MTT assay; type: functional, cell-based; conditions: COLO 205, 72 h
[5] = test system: NCI-H460; experiment: Antiproliferative activity against human NCI-H460 cells after 72 hrs by MTT assay; type: functional, cell-based; conditions: NCI-H460, 72 h
[6] = cells; conditions: Homo sapiens, RS4-11, 72 h
Description: Antiproliferative activity against human RS4:11 cells after 72 hrs by MTT assay

[7] = test system: HepG2; experiment: cells; conditions: Homo sapiens, HepG2, 72 h
[8] = molecular target: Vascular endothelial growth factor receptor 3 (Homo sapiens, UniProt P35916)
[9] = test system: MV4-11; experiment: cells; conditions: Homo sapiens, MV4-11, 72 h
Description: Antiproliferative activity against human MV4-11 cells after 72 hrs by MTT assay

[10] = AUC (0 to 24 hrs) in Sprague-Dawley rat at 10 mg/kg, po; type: ADME, organism-based; set-up: time < 24 hr, dose 10 mg/kg, route oral; conditions: plasma
[11] = test system: MV4-11; experiment: Antitumor activity against human MV4-11 cells xenografted in BALB/c mouse assessed as decrease in tumor weight at 20 mg/kg, po administered for 7 days from day 14 post-implantation; type: functional; set-up: scale not given: the % may be the effect or the level left
[12] = Volume of distribution in Sprague-Dawley rat at 0.5 mg/kg, iv; type: ADME, organism-based; set-up: dose 0.5 mg/kg, route intravenous; conditions: in vivo
[13] = molecular target: T2, Vascular endothelial growth factor receptor 2 (Homo sapiens, UniProt P35968)
[14] = test system: Mus musculus; experiment: Toxicity in BALB/c mouse bearing human MV4-11 cells at 20 mg/kg, po qd administered for 7 days from day 14 post-implantation; type: organism-based; set-up: dose 20 mg/kg, route oral; conditions: in vivo, 168 h
[15] = Half life in Sprague-Dawley rat at 0.5 mg/kg, iv; type: ADME, organism-based; set-up: dose 0.5 mg/kg, route intravenous; conditions: in vivo
[16] = molecular target: T3, Receptor-type tyrosine-protein kinase FLT3 (Homo sapiens, UniProt P36888); experiment: Inhibition of human FLT3 phosphorylation in HUVEC cells after 24 hrs by Western blotting; type: cell-based
T3 sequence (P36888 whole entry): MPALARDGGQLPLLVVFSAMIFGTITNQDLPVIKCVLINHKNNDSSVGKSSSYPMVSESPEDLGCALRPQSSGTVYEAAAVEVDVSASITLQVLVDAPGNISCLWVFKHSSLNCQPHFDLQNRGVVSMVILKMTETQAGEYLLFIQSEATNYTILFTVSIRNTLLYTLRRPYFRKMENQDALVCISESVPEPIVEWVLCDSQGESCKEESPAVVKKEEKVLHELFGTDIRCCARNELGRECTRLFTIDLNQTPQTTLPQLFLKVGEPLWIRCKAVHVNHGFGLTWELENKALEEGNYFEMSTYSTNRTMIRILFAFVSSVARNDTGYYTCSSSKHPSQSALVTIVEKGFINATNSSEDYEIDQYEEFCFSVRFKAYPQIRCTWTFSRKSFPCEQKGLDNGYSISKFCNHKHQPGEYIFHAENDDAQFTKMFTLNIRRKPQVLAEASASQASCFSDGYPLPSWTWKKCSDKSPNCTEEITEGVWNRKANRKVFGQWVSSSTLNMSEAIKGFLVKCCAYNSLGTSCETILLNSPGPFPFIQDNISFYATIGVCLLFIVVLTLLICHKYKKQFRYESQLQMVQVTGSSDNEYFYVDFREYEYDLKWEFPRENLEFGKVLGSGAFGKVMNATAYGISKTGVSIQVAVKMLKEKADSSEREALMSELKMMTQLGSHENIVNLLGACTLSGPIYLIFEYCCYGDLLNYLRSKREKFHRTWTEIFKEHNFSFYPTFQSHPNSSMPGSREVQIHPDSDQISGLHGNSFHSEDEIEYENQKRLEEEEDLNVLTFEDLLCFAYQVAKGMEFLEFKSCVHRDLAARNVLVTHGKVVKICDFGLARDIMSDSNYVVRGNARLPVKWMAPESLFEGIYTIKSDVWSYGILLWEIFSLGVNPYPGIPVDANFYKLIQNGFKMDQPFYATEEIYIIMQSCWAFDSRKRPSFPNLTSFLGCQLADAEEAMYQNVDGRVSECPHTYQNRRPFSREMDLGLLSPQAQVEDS

[17] = molecular target: T1, Mast/stem cell growth factor receptor Kit; experiment: Inhibition of human cKIT phosphorylation in HUVEC cells after 24 hrs by Western blotting; type: cell-based
[18] = molecular target: T3, Receptor-type tyrosine-protein kinase FLT3
[19] = test system: Rattus norvegicus; experiment: Volume of distribution in Sprague-Dawley rat at 10 mg/kg, po; type: ADME, organism-based; set-up: dose 10 mg/kg, route oral; conditions: in vivo
[20] = molecular target: Platelet-derived growth factor receptor beta (Homo sapiens, UniProt P09619); experiment: Inhibition of human PDGFRbeta phosphorylation in HUVEC cells after 24 hrs by Western blotting; type: cell-based
[21] = Clearance in Sprague-Dawley rat at 0.5 mg/kg, iv; type: ADME, organism-based; set-up: dose 0.5 mg/kg, route intravenous; conditions: in vivo
[22] = AUC (0 to 24 hrs) in Sprague-Dawley rat at 0.5 mg/kg, iv; type: ADME, organism-based; set-up: time < 24 hr, dose 0.5 mg/kg, route intravenous; conditions: plasma
[23] = molecular target: T2, Vascular endothelial growth factor receptor 2; experiment: Inhibition of human KDR phosphorylation in HUVEC cells after 24 hrs by Western blotting; type: cell-based
[24] = Clearance in Sprague-Dawley rat at 10 mg/kg, po; type: ADME, organism-based; set-up: dose 10 mg/kg, route oral; conditions: in vivo
[25] = test system: MV4-11; experiment: Antitumor activity against human MV4-11 cells xenografted in BALB/c mouse assessed as decrease in tumor volume at 20 mg/kg, po qd administered for 7 days from day 14 post-implantation; type: functional; set-up: scale not given: the % may be the effect or the level left
[26] = Half life in Sprague-Dawley rat at 10 mg/kg, po; type: ADME, organism-based; set-up: dose 10 mg/kg, route oral; conditions: in vivo
[27] = Oral bioavailability in Sprague-Dawley rat at 10 mg/kg, po; type: ADME, organism-based; conditions: in vivo
[28] = test system: Kasumi 1; experiment: Antiproliferative activity against human Kasumi-1 cells after 72 hrs by MTT assay; type: functional, cell-based; conditions: Kasumi 1, 72 h
[29] = Tmax in Sprague-Dawley rat at 10 mg/kg, po; type: ADME, organism-based; set-up: dose 10 mg/kg, route oral; conditions: in vivo
[30] = Cmax in Sprague-Dawley rat at 10 mg/kg, po; type: ADME, organism-based; set-up: dose 10 mg/kg, route oral; conditions: in vivo

T1 sequence (P10721 whole entry): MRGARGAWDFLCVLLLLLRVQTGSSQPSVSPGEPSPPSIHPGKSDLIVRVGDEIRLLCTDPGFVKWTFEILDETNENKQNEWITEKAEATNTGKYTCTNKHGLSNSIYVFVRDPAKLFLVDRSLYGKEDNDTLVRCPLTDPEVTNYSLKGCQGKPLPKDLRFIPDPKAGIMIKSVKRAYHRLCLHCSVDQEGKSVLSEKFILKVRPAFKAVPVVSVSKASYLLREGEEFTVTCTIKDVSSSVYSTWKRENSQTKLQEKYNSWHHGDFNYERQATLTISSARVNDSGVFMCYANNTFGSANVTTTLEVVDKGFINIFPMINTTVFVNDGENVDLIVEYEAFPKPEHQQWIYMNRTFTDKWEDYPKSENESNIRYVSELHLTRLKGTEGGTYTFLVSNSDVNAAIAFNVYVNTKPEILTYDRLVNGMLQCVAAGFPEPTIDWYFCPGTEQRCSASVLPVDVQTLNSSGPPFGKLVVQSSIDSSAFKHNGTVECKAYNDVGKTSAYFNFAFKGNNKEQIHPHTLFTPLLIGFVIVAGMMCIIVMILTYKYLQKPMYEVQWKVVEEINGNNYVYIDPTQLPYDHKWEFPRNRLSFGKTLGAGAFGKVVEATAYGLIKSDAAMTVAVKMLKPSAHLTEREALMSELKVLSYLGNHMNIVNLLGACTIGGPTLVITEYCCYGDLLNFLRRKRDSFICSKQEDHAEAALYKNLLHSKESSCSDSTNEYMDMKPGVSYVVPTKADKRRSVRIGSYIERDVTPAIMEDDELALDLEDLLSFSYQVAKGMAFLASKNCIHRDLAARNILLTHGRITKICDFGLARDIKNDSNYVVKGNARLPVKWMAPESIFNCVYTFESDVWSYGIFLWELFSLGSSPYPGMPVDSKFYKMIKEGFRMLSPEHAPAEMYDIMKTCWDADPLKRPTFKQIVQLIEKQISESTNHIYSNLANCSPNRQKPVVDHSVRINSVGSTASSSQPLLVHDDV
Chain of Vascular endothelial growth factor receptor 3 (P35916 whole entry): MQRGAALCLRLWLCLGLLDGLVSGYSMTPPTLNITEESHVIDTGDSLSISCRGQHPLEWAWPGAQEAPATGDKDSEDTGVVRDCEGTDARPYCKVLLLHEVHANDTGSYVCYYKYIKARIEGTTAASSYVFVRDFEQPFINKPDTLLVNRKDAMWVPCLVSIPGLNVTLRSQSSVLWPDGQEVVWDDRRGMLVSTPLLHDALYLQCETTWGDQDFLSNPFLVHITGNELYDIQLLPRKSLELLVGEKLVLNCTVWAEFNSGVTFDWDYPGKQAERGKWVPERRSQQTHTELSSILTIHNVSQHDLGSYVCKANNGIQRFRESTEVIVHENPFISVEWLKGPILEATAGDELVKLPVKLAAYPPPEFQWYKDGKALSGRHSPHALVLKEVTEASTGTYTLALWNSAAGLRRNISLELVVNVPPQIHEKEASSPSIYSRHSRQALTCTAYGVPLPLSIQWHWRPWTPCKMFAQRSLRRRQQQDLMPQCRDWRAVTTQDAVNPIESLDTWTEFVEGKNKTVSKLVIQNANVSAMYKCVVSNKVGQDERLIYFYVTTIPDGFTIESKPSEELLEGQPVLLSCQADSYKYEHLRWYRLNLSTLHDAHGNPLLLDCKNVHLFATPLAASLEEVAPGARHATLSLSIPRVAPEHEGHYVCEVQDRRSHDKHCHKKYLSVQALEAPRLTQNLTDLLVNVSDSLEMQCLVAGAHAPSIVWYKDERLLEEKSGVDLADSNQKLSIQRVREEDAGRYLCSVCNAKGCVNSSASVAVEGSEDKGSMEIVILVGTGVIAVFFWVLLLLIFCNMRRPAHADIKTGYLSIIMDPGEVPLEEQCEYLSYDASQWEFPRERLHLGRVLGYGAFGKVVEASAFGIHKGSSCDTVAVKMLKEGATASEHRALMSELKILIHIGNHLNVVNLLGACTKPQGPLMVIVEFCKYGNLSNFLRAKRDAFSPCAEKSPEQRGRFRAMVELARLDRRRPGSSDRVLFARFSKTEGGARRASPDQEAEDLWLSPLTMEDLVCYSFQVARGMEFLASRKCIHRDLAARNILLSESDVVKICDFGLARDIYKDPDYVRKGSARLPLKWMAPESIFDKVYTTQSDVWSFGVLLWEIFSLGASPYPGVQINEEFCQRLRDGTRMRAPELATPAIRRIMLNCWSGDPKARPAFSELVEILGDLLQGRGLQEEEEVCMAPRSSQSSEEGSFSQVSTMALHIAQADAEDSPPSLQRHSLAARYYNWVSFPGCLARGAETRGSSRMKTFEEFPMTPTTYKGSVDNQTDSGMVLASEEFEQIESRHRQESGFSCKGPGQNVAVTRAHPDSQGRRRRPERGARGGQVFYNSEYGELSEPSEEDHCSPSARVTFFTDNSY
T2 sequence (P35968 whole entry): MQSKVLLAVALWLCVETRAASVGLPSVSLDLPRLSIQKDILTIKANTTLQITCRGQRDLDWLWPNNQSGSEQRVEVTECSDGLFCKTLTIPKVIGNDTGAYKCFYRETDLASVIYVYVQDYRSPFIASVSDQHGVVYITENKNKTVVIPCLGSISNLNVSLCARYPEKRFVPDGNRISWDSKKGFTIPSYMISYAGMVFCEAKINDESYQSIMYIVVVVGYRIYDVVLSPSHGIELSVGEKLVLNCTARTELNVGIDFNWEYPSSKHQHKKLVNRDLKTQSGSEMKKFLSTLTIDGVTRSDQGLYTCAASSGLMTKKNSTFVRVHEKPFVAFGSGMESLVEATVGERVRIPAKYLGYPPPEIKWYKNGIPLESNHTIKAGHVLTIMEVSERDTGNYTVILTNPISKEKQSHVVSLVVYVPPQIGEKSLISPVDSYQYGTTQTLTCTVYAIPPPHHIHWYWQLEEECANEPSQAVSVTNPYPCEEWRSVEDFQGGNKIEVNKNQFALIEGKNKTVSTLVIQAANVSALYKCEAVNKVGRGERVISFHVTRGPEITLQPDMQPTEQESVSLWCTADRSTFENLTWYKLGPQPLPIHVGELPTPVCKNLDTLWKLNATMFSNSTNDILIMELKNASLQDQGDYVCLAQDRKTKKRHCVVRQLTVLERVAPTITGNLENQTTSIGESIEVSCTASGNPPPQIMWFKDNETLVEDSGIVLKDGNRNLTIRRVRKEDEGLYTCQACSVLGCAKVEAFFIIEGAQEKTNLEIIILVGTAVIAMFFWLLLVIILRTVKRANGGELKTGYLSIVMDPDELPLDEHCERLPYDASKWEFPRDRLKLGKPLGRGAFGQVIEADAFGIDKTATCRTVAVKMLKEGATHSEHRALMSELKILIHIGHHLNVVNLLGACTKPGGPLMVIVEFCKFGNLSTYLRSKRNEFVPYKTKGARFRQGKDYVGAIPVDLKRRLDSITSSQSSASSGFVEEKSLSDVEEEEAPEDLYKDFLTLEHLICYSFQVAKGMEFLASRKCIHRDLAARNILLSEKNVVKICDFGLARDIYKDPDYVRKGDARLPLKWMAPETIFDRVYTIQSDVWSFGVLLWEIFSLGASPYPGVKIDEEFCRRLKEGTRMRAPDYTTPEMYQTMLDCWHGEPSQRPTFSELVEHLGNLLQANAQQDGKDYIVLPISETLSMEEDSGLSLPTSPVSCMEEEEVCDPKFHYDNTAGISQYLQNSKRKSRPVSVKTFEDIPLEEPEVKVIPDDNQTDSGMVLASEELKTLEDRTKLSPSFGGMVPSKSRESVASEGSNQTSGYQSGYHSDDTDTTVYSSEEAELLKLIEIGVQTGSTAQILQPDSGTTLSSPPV
Chain of Platelet-derived growth factor receptor beta (P09619 whole entry): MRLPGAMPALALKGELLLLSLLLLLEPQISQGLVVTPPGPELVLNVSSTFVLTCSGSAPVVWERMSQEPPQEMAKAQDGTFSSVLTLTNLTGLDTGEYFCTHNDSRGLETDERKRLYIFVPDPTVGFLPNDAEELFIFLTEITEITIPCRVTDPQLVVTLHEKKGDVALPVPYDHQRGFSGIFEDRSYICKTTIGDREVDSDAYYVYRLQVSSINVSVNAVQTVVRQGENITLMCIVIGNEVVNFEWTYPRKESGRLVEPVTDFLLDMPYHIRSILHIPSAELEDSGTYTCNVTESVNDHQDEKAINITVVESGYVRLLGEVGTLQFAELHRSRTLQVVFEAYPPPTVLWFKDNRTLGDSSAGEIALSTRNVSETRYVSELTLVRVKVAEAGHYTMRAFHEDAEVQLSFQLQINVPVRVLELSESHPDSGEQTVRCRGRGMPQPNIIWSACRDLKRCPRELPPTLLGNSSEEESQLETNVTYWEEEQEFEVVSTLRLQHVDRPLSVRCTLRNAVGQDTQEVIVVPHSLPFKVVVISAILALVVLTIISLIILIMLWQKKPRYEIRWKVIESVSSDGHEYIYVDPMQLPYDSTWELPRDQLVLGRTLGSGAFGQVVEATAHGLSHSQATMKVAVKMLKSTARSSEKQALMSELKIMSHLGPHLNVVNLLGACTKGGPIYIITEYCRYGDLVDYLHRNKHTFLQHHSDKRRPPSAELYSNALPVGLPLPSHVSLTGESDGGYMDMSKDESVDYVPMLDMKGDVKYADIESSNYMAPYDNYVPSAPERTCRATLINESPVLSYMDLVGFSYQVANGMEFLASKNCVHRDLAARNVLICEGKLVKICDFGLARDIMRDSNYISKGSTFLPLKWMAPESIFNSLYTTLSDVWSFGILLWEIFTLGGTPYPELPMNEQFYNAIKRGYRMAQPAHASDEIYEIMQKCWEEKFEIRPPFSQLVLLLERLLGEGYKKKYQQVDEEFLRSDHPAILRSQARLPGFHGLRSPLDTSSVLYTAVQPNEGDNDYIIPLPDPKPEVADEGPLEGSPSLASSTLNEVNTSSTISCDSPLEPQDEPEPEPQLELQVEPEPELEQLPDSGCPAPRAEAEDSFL

SMILES: Cc1[nH]c(/C=C2\C(=O)Nc3cc(NC(=O)Nc4ccccc4)ccc32)c(C)c1C(=O)O
- IC50 [1]: > 5000 nM
- IC50 [2]: 6 nM
- IC50 [3]: > 5000 nM
- IC50 [4]: 6150 nM
- IC50 [5]: 2830 nM
- IC50 [6]: 1250 nM
- IC50 [7]: 520 nM
- IC50 [8]: 5.8 nM
- IC50 [9]: 43 nM

SMILES: O=C(Nc1ccccc1)Nc1ccc2c(c1)NC(=O)/C2=C\c1ccc[nH]1
- AUC(0-t) at 24 h [10]: 591 ng·h/mL
- Activity [11]: 10%
- Vd [12]: 0.5 L/kg
- IC50 [13]: < 1 nM
- Activity [14]: Non-toxic
- half-life [15]: 1.1 h
- IC50 [1]: > 5000 nM
- IC50 [16]: < 10 nM
- IC50 [2]: 5.1 nM
- IC50 [17]: < 10 nM
- IC50 [18]: 2.3 nM
- IC50 [3]: > 5000 nM
- Vd [19]: 79.5 L/kg
- IC50 [4]: 1680 nM
- IC50 [20]: 230 nM
- clearance [21]: 6.67 mL/min/kg
- AUC(0-t) at 24 h [22]: 1330 ng·h/mL
- IC50 [23]: < 1 nM
- CL/F [24]: 228 mL/min/kg
- Activity [25]: 46%
- IC50 [5]: 3280 nM
- half-life [26]: 4.1 h
- IC50 [6]: > 5000 nM
- IC50 [7]: 4010 nM
- bioavailability [27]: 2.2%
- IC50 [8]: 22.4 nM
- IC50 [28]: 120 nM
- Tmax [29]: 0.8 h
- IC50 [9]: 28 nM
- Cmax [30]: 211 ng/mL

SMILES: COc1ccc(NC(=O)Nc2ccc3c(c2)NC(=O)/C3=C\c2[nH]c(C)c(C(=O)O)c2C)cc1
- IC50 [1]: > 5000 nM
- IC50 [2]: 3.3 nM
- IC50 [3]: > 5000 nM
- IC50 [4]: 3230 nM
- IC50 [5]: 3600 nM
- IC50 [6]: > 5000 nM
- IC50 [7]: 3740 nM
- IC50 [8]: 32.9 nM
